From PMC11662004 (Communications Chemistry, 2024)
Where two headings read alike, the source gives them in different places.

Tests used:
TET2CDΔLCI = biological target: T1, TET2CDΔLCI (Homo sapiens, UniProt Q6N021); test: AlphaScreen competition assay with biotinylated 5mC dsDNA; type: binding; conditions: 12.5 nM TET2CDΔLCI, 12.5 nM 5mC dsDNA
T1 construct: FLAG-[thrombin cleavage site]-SUMO (N); made in house; host or cells: E. coli
Experimental: (§1) AlphaScreen™ Histidine (Nickel Chelate) Detection Kit was used to evaluate displacement of […] (^5mC dsDNA)[33],[34]. Competitor DNA oligomers in assay buffer were manually dispensed onto 384-well ProxiPlates (5 μL) in a 2-fold dilution series. His6-tagged NgTet1 or TET2CDΔLCI in assay buffer was added (5 μL), and the mixture was pre-incubated with the competitor DNA at room temperature for 10 min. Cofactors and biotinylated ^5mC dsDNA in assay buffer were added (5 μL), and the mixture was further incubated at room temperature for 10 min. A mixture of AlphaScreen beads (1:62.5 dilution) in assay buffer was added (5 μL), and the full mixture was incubated at room temperature for 1 h. The final mixtures (20 μL) contained 100 nM NgTet1 (50 nM ^5mC dsDNA) or 12.5 nM TET2CDΔLCI (12.5 nM ^5mC dsDNA), 50 μM sodium L-ascorbate, 5 μM (NH4)2Fe(SO4)2, and 5 μM disodium NOG in assay buffer (50 mM HEPES [pH 7.3], 150 mM NaCl, 0.1% v/v BSA, 0.01% v/v Tween® 20). For the assay interference counter screen, His6-tagged TET protein and biotinylated ^5mC dsDNA were replaced with 1.6 nM biotinylated His6 peptide. Chemiluminescence was measured on a PHERAstar FS/FSX (BMG Labtech) equipped with an AlphaScreen 680 570 module. All AlphaScreen bead manipulations were performed under subdued lighting. Inhibition data was normalised to reactions containing no competitor and fitted using “log(inhibitor) vs. response - Variable slope (four parameters)” non-linear regression model on GraphPad Prism 5. […]
(§2) Fig. S5 TETs bind to DNA in a sequence- and modification-independent manner. A binding assay between a biotinylated 5mC dsDNA oligomer and His6-tagged TET was developed using AlphaScreen Histidine (Nickel Chelate) assay. […] Conditions: a 100 nM NgTet1 (50 nM 5mC dsDNA), b 12.5 nM TET2CDΔLCI (12.5 nM 5mC dsDNA), c 1.6 nM biotinylated His6 peptide. Each assay was supplemented with 50 μM sodium L-ascorbate, 5 μM (NH4)2Fe(SO4)2, and 5 μM disodium NOG. Data shown as the mean of three to four experimental replicates (n = 3–4; mean ± SD); tabulated data reported as the mean of two independent replicates (n = 2).

NgTet1 [1] = biological target: T2, NgTet1 (Naegleria gruberi, UniProt D2W6T1); test: as above; type: binding; conditions: 100 nM NgTet1, 50 nM 5mC dsDNA
T2 construct: His6-tagged full-length Naegleria gruberi NgTet1 (321 a. a.) protein with a thrombin cleavage site; made in house; host or cells: E. coli BL21(DE3)
T2 sequence (D2W6T1 1-321): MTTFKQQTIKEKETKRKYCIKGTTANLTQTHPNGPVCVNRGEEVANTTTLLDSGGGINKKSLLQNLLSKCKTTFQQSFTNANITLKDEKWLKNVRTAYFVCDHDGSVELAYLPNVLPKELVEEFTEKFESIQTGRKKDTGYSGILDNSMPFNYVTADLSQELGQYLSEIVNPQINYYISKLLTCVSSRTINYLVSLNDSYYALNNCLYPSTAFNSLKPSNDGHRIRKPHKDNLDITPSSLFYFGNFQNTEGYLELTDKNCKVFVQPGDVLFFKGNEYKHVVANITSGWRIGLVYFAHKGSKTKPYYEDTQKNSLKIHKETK
Experimental: as §1, §2

NgTet1 [2] = biological target: T2, NgTet1; type: biochemical
Experimental: Double-stranded 12 bp DNA oligomers were added at a final concentration of 20 µM. […]
Double-stranded DNA oligomers were added at a final concentration of 20 µM. […]
All ^1H NMR spectra were recorded at 25 °C using D2O as a reference for internal deuterium lock on a Bruker Avance III 700 MHz equipped with an inverse TCI cryoprobe in 3 or 5 mm diameter tubes with a total sample volume of 160 or 565 μL, respectively. The water signal was reduced using Perfect Echo excitation sculpting suppression. Chemical shifts are reported in ppm relative to D2O (δH = 4.70 ppm).
Spectrometer settings were determined using a control sample containing all reaction components excluding enzyme. TET enzyme was added to an identical sample, and the resulting assay mixture was transferred to an NMR tube before deposition into the instrument. […] Spectrum recordings were carried out consecutively without delay. Data were processed using automated routines on MestReNova v14.2.0; signals of interest were integrated with absolute intensity scaling. ^1H NMR time courses reported in figures are representative results from two or three independent replicates.

AT DNA: double-stranded self-complementary 5'-ACC ACA TGT GGT-3', CpG replaced by ApT (DNA ACCACATGTGGT; DNA, backbone and methylation of C not given here; self-complementary duplex)
IC50 (TET2CDΔLCI): 4.57 µM
competition pIC50 TET2CDΔLCI (TET2CDΔLCI; n = 2): 5.34
IC50 (NgTet1 [1]): 56.2 µM
competition pIC50 NgTet1 (NgTet1 [1]; n = 2): 4.25
V0 NgTet1 (NgTet1 [2]; 20 µM DNA, 100 μM 2OG, 5 μM NgTet1): 0.82 µM/min
succinate (NgTet1 [2]; n = 1, time (min) 5HC DNA 5.9, AT DNA 5.81667, 5mC DNA 5.78333): 4.127 µM
succinate (NgTet1 [2]; n = 1, time (min) 5HC DNA 8.98333, AT DNA 8.9, 5mC DNA 8.86667): 6.717 µM
succinate (NgTet1 [2]; n = 1, time (min) 5HC DNA 12.0667, AT DNA 11.9833, 5mC DNA 11.95): 10.1801 µM
succinate (NgTet1 [2]; n = 1, time (min) 5HC DNA 15.1333, AT DNA 15.0667, 5mC DNA 15.0333): 12.0396 µM
succinate (NgTet1 [2]; n = 1, time (min) 5HC DNA 18.2167, AT DNA 18.1333, 5mC DNA 18.1167): 14.7705 µM
succinate (NgTet1 [2]; n = 1, time (min) 5HC DNA 21.3667, AT DNA 21.2333, 5mC DNA 21.2): 16.3534 µM
succinate (NgTet1 [2]; n = 1, time (min) 5HC DNA 24.45, AT DNA 24.3167, 5mC DNA 24.2833): 18.4118 µM
succinate (NgTet1 [2]; n = 1, time (min) 5HC DNA 27.5333, AT DNA 27.3833, 5mC DNA 27.3667): 20.2156 µM
succinate (NgTet1 [2]; n = 1, time (min) 5HC DNA 30.6, AT DNA 30.4667, 5mC DNA 30.45): 21.7474 µM
succinate (NgTet1 [2]; n = 1, time (min) 5HC DNA 33.6833, AT DNA 33.55, 5mC DNA 33.5333): 22.2243 µM
succinate (NgTet1 [2]; n = 1, time (min) 5HC DNA 36.7667, AT DNA 36.6333, 5mC DNA 36.6167): 23.7117 µM
succinate (NgTet1 [2]; n = 1, time (min) 5HC DNA 39.85, AT DNA 39.7167, 5mC DNA 39.7): 24.5115 µM
succinate (NgTet1 [2]; n = 1, time (min) 5HC DNA 42.9333, AT DNA 42.8, 5mC DNA 42.7833): 26.1396 µM
succinate (NgTet1 [2]; n = 1, time (min) 5HC DNA 46.0167, AT DNA 45.8833, 5mC DNA 45.8667): 27.6473 µM
succinate (NgTet1 [2]; n = 1, time (min) 5HC DNA 49.0833, AT DNA 48.9667, 5mC DNA 48.95): 28.232 µM
succinate (NgTet1 [2]; n = 1, time (min) 5HC DNA 52.1667, AT DNA 52.05, 5mC DNA 52.0333): 29.053 µM
succinate (NgTet1 [2]; n = 1, time (min) 5HC DNA 55.25, AT DNA 55.1167, 5mC DNA 55.1167): 29.9694 µM
succinate (NgTet1 [2]; n = 1, time (min) 5HC DNA 58.3333, AT DNA 58.2, 5mC DNA 58.2): 30.8156 µM
succinate (NgTet1 [2]; n = 1, time (min) 5HC DNA 61.4, AT DNA 61.2833, 5mC DNA 61.2833): 32.4581 µM
succinate (NgTet1 [2]; n = 1, time (min) 5HC DNA 64.4833, AT DNA 64.3833, 5mC DNA 64.35): 32.8043 µM
succinate (NgTet1 [2]; n = 2, time (min) 5HC DNA 5.81667, AT DNA 5.61667, 5mC DNA 6.08333): 3.542 µM
succinate (NgTet1 [2]; n = 2, time (min) 5HC DNA 8.88333, AT DNA 8.7, 5mC DNA 9.16667): 5.909 µM
succinate (NgTet1 [2]; n = 2, time (min) 5HC DNA 12.0333, AT DNA 11.7833, 5mC DNA 12.25): 8.271 µM
succinate (NgTet1 [2]; n = 2, time (min) 5HC DNA 15.1167, AT DNA 14.8667, 5mC DNA 15.3167): 11.2722 µM
succinate (NgTet1 [2]; n = 2, time (min) 5HC DNA 18.1833, AT DNA 17.9333, 5mC DNA 18.4): 12.8044 µM
succinate (NgTet1 [2]; n = 2, time (min) 5HC DNA 21.2667, AT DNA 21.0167, 5mC DNA 21.4833): 14.5697 µM
succinate (NgTet1 [2]; n = 2, time (min) 5HC DNA 24.35, AT DNA 24.1, 5mC DNA 24.5667): 16.6119 µM
succinate (NgTet1 [2]; n = 2, time (min) 5HC DNA 27.4333, AT DNA 27.1833, 5mC DNA 27.65): 17.8887 µM
succinate (NgTet1 [2]; n = 2, time (min) 5HC DNA 30.5167, AT DNA 30.2667, 5mC DNA 30.7333): 19.2454 µM
succinate (NgTet1 [2]; n = 2, time (min) 5HC DNA 33.6, AT DNA 33.35, 5mC DNA 33.8167): 20.9427 µM
succinate (NgTet1 [2]; n = 2, time (min) 5HC DNA 36.6833, AT DNA 36.4333, 5mC DNA 36.9): 21.6807 µM
succinate (NgTet1 [2]; n = 2, time (min) 5HC DNA 39.7667, AT DNA 39.5167, 5mC DNA 39.9833): 23.2699 µM
succinate (NgTet1 [2]; n = 2, time (min) 5HC DNA 42.8333, AT DNA 42.6, 5mC DNA 43.0667): 23.7997 µM
succinate (NgTet1 [2]; n = 2, time (min) 5HC DNA 45.9167, AT DNA 45.6833, 5mC DNA 46.15): 25.1342 µM
succinate (NgTet1 [2]; n = 2, time (min) 5HC DNA 49, AT DNA 48.7667, 5mC DNA 49.2333): 26.0623 µM
succinate (NgTet1 [2]; n = 2, time (min) 5HC DNA 52.0833, AT DNA 51.85, 5mC DNA 52.3167): 26.9664 µM
succinate (NgTet1 [2]; n = 2, time (min) 5HC DNA 55.1667, AT DNA 54.9333, 5mC DNA 55.4): 27.9222 µM
succinate (NgTet1 [2]; n = 2, time (min) 5HC DNA 58.25, AT DNA 58.0167, 5mC DNA 58.4833): 28.2598 µM
succinate (NgTet1 [2]; n = 2, time (min) 5HC DNA 61.3333, AT DNA 61.1, 5mC DNA 61.5667): 29.5623 µM
succinate (NgTet1 [2]; n = 2, time (min) 5HC DNA 64.4167, AT DNA 64.1667, 5mC DNA 64.65): 30.2392 µM
Relative V0 NgTet1 (NgTet1 [2]; relative to reactions without DNA): 2.3
